This assay has as its target T1, ΔF508-CFTR (Homo sapiens, UniProt P13569, DEL508-508).
T1 construct: expressed in transfected cells
The experiment in a line: Membrane potential optical assay for ΔF508-CFTR potentiation (double-addition HTS, FLIPR III). In kind it is cell-based. The settings on record: for Emax: 100% efficacy is the maximum response obtained with 4-methyl-2-(5-phenyl-1H-pyrazol-3-yl)phenol. The source says: Membrane Potential Optical Methods for Assaying ΔF508-CFTR Modulation Properties of Compounds
The assay utilizes fluorescent voltage sensing dyes to measure changes in membrane potential using a fluorescent plate reader (e.g., FLIPR III, Molecular Devices, Inc.) as a readout for increase in functional ΔF508-CFTR in NIH 3T3 cells. The driving force for the response is the creation of a chloride ion gradient in conjunction with channel activation by a single liquid addition step after the cells have previously been treated with compounds and subsequently loaded with a voltage sensing dye.
To identify potentiators of ΔF508-CFTR, a double-addition HTS assay format was developed. This HTS assay utilizes fluorescent voltage sensing dyes to measure changes in membrane potential on the FLIPR III as a measurement for increase in gating (conductance) of ΔF508 CFTR in temperature-corrected ΔF508 CFTR NIH 3T3 cells. The driving force for the response is a Cl^− ion gradient in conjunction with channel activation with forskolin in a single liquid addition step using a fluorescent plate reader such as FLIPR III after the cells have previously been treated with potentiator compounds (or DMSO vehicle control) and subsequently loaded with a redistribution dye.
Bath Solution #1: (in mM) NaCl 160, KCl 4.5, CaCl2 2, MgCl2 1, HEPES 10, pH 7.4 with NaOH.
Chloride-Free Bath Solution: Chloride Salts in Bath Solution #1 are Substituted with Gluconate Salts.
NIH3T3 mouse fibroblasts stably expressing ΔF508-CFTR are used for optical measurements of membrane potential. The cells are maintained at 37° C. in 5% CO2 and 90% humidity in Dulbecco's modified Eagle's medium supplemented with 2 mM glutamine, 10% fetal bovine serum, 1×NEAA, β-ME, 1× pen/strep, and 25 mM HEPES in 175 cm^2 culture flasks. For all optical assays, the cells were seeded at ˜20,000/well in 384-well matrigel-coated plates and cultured for 2 hrs at 37° C. before culturing at 27° C. for 24 hrs. for the potentiator assay. For the correction assays, the cells are cultured at 27° C. or 37° C. with and without compounds for 16-24 hours. Electrophysiological Assays for assaying ΔF508-CFTR modulation properties of compounds.
Compounds of the invention are useful as modulators of ATP binding cassette transporters. Examples of activities and efficacies of the compounds of Formula (I) are shown below in Table 3. The compound activity is illustrated with “+++” if activity was measured to be less than 2.0 μM, “++” if activity was measured to be from 2 μM to 5.0 μM, “+” if activity was measured to be greater than 5.0 μM, and “−” if no data was available. The efficacy is illustrated with “+++” if efficacy was calculated to be greater than 100%, “++” if efficacy was calculated to be from 100% to 25%, “+” if efficacy was calculated to be less than 25%, and “−” if no data was available. It should be noted that 100% efficacy is the maximum response obtained with 4-methyl-2-(5-phenyl-1H-pyrazol-3-yl)phenol.

By pEC50 is commonly meant −log10 of the EC50, conventionally taken in molar units. As usually defined, the Emax is the maximal effect, on the per cent scale that the assay sets.

pEC50: −log10 of the molar value. Where a name gives a salt, the structure may show the parent alone. Some results are limits rather than exact numbers.

T1 sequence (P13569 with tags, fused parts or gaps DEL508-508): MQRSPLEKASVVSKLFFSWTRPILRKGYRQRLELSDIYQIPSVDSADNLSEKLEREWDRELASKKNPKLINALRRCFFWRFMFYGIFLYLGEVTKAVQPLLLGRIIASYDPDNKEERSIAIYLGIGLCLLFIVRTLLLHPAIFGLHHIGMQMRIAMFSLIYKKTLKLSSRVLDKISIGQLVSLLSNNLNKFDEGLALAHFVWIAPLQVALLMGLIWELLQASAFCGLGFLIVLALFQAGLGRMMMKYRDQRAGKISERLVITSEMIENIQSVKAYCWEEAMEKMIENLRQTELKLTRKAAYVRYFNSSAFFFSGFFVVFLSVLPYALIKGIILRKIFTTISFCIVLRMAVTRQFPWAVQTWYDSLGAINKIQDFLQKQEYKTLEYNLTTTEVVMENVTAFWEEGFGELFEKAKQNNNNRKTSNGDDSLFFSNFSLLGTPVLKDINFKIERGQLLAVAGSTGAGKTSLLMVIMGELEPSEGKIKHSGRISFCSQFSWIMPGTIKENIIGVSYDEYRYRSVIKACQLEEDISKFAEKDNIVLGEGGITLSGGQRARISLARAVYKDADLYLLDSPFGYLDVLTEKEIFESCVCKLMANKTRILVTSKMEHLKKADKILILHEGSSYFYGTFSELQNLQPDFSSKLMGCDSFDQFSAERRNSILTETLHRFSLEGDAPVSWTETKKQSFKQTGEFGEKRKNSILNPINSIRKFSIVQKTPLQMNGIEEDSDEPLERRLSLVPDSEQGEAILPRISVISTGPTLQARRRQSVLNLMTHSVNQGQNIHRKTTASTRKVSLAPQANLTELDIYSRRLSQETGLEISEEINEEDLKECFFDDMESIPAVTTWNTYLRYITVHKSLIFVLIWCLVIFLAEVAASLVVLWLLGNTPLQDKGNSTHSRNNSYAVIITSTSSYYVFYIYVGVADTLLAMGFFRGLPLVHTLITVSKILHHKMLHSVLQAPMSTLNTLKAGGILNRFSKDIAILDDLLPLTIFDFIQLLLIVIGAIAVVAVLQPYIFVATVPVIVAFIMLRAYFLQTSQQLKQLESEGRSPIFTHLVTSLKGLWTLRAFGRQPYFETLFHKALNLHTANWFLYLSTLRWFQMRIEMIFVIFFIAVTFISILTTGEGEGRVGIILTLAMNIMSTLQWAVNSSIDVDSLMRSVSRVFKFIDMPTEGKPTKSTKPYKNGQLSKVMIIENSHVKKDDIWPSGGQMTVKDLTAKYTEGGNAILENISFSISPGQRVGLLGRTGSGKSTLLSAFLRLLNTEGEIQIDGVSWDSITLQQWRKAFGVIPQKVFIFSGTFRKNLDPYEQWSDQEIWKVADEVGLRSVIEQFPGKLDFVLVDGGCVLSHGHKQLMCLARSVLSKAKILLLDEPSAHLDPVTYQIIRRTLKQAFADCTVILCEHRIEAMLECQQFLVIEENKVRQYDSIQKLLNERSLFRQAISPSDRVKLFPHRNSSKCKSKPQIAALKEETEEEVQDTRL

`Cc1cc(N2C3CCC2CC3)ncc1NC(=O)c1c[nH]c2cccc(C)c2c1=O` [Compound 1, N-(6-(7-azabicyclo[2.2.1]heptan-7-yl)-4-methylpyridin-3-yl)-5-methyl-4-oxo-1,4-dihydroquinoline-3-carboxamide hydrochloride]: the pEC50 is more than 5.70 and the Emax lay in the range of 25 to 100%.
For `O=C(Nc1ccc(N2C3CCC2CC3)nc1C(F)(F)F)c1c[nH]c2cccc(C(F)(F)F)c2c1=O` [Compound 2, N-(6-(7-azabicyclo[2.2.1]heptan-7-yl)-2-(trifluoromethyl)pyridin-3-yl)-4-oxo-5-(trifluoromethyl)-1,4-dihydroquinoline-3-carboxamide], in that order: more than 5.70 and 25 to 100%.
For `Cc1cccc2[nH]cc(C(=O)Nc3ccc(N4C5CCC4CC5)nc3C(F)(F)F)c(=O)c12` [Compound 3], the pEC50 is more than 5.70 and the Emax lay within 25 to 100%.

Source of the values: patent US8314239B2, “Modulators of cystic fibrosis transmembrane conductance regulator” (priority 2008, dated 2012).
